Earlier results, collected in publication PMC5074076, “Novel minimal physiologically-based model for the prediction of passive tubular reabsorption and renal excretion clearance” (European Journal of Pharmaceutical Sciences, 2016).

Conditions: healthy subjects; plasma and urine data from same subjects; normalised for subject weight and body surface area where necessary; ref Table S2.1; cited from earlier work

For `CCCC(=O)Nc1ccc(OCC(O)CNC(C)C)c(C(C)=O)c1` (stereo not shown) [Acebutolol], the “Overall weighted mean CLR” value is listed as 222.8 mL/min.

For `CCN(CC)CCNC(=O)c1ccc(NC(C)=O)cc1` [Acecainide], the “Overall weighted mean CLR” value is given as 226.7 mL/min.

For `Nc1ncnc2c1ncn2CCOCP(=O)(O)O` [Adefovir], the “Overall weighted mean CLR” value is given as 200.4 mL/min.

For `CN(C)CCc1c[nH]c2ccc(CS(=O)(=O)N3CCCC3)cc12` [Almotriptan], the “Overall weighted mean CLR” value is given as 399.5 mL/min.

For `NC12CC3CC(CC(C3)C1)C2` [Amantadine], the “Overall weighted mean CLR” value is listed as 219.2 mL/min.

In the case of `CC1(C)S[C@@H]2[C@H](NC(=O)[C@H](N)c3ccc(O)cc3)C(=O)N2[C@H]1C(=O)O` [Amoxicillin], the “Overall weighted mean CLR” value is listed as 167.0 mL/min.

For `CC1(C)S[C@@H]2[C@H](NC(=O)[C@H](NC(=O)c3cnc4cccnc4c3O)c3ccccc3)C(=O)N2[C@H]1C(=O)O` [Apalcillin], the “Overall weighted mean CLR” value is given as 29.0 mL/min.

In the case of `CC1(C)S[C@@H]2[C@H](NC(=O)[C@H](NC(=O)N3CCNC3=O)c3ccccc3)C(=O)N2[C@H]1C(=O)O` [Azlocillin], the “Overall weighted mean CLR” value is given as 83.3 mL/min.

For `CC1(C)S[C@@H]2[C@H](NC(=O)Cc3ccccc3)C(=O)N2[C@H]1C(=O)O` [Benzylpenicillin], the “Overall weighted mean CLR” value is given as 316.8 mL/min.

For `CC(C)NCC(O)COc1ccc(COCCOC(C)C)cc1` (stereo not shown) [Bisoprolol], the “Overall weighted mean CLR” value is given as 157.0 mL/min.

For `CC1(C)S[C@@H]2[C@H](NC(=O)C(C(=O)O)c3ccccc3)C(=O)N2[C@H]1C(=O)O` (stereo partly shown) [Carbenicillin], the “Overall weighted mean CLR” value is given as 127.0 mL/min.

For `Cn1nnnc1SCC1=C(C(=O)O)N2C(=O)[C@@H](NC(=O)[C@H](O)c3ccccc3)[C@H]2SC1` [Cefamandole], the “Overall weighted mean CLR” value is listed as 162.3 mL/min.

In the case of `C=CC1=C(C(=O)O)N2C(=O)[C@@H](NC(=O)/C(=N\OCC(=O)O)c3csc(N)n3)[C@H]2SC1` [Cefixime], the “Overall weighted mean CLR” value is given as 32.5 mL/min.

For `CO[C@@]1(NC(=O)CSCC#N)C(=O)N2C(C(=O)O)=C(CSc3nnnn3C)CS[C@@H]21` [Cefmetazole], the “Overall weighted mean CLR” value is given as 110.2 mL/min.

In the case of `CO/N=C(\C(=O)N[C@@H]1C(=O)N2C(C(=O)O)=C(CSc3nc(C)c(CC(=O)O)s3)CS[C@H]12)c1csc(N)n1` [Cefodizime], the “Overall weighted mean CLR” value is listed as 29.1 mL/min.

For `O=C(O)C1=C(CSc2nnnn2CS(=O)(=O)O)CS[C@@H]2[C@H](NC(=O)[C@H](O)c3ccccc3)C(=O)N12` [Cefonicid], the “Overall weighted mean CLR” value is given as 18.3 mL/min.

For `NCc1ccccc1CC(=O)N[C@@H]1C(=O)N2C(C(=O)O)=C(CSc3nnnn3CC(=O)O)CS[C@H]12` [Ceforanide], the “Overall weighted mean CLR” value is listed as 46.8 mL/min.

In the case of `CO/N=C(\C(=O)N[C@@H]1C(=O)N2C(C(=O)O)=C(COC(C)=O)CS[C@H]12)c1csc(N)n1` [Cefotaxime], the “Overall weighted mean CLR” value is given as 119.7 mL/min.

For `CO[C@@]1(NC(=O)C2SC(=C(C(N)=O)C(=O)O)S2)C(=O)N2C(C(=O)O)=C(CSc3nnnn3C)CS[C@@H]21` (stereo partly shown) [Cefotetan], the “Overall weighted mean CLR” value is given as 23.9 mL/min.

In the case of `CN(C)CCn1nnnc1SCC1=C(C(=O)O)N2C(=O)[C@@H](NC(=O)Cc3csc(N)n3)[C@H]2SC1` [Cefotiam], the “Overall weighted mean CLR” value is listed as 193.7 mL/min.

In the case of `CO/N=C(\C(=O)N[C@@H]1C(=O)N2C(C(=O)[O-])=C(C[n+]3cccc4c3CCC4)CS[C@H]12)c1csc(N)n1` [Cefpirome], the “Overall weighted mean CLR” value is given as 97.5 mL/min.

In the case of `CC(C)(O/N=C(\C(=O)N[C@@H]1C(=O)N2C(C(=O)[O-])=C(C[n+]3ccccc3)CS[C@H]12)c1csc(N)n1)C(=O)O` [Ceftazidime], the “Overall weighted mean CLR” value is listed as 98.0 mL/min.

For `CO/N=C(\C(=O)N[C@@H]1C(=O)N2C(C(=O)O)=CCS[C@H]12)c1csc(N)n1` [Ceftizoxime], the “Overall weighted mean CLR” value is given as 102.2 mL/min.

For `CCN(CC)CCCC(C)Nc1ccnc2cc(Cl)ccc12` (stereo not shown) [Chloroquine], the “Overall weighted mean CLR” value is given as 167.2 mL/min.

In the case of `NS(=O)(=O)c1cc(C2(O)NC(=O)c3ccccc32)ccc1Cl` (stereo not shown) [Chlorthalidone], the “Overall weighted mean CLR” value is listed as 62.3 mL/min.

For `CN/C(=N/CCSCc1nc[nH]c1C)NC#N` [Cimetidine], the “Overall weighted mean CLR” value is listed as 417.0 mL/min.

For `NC1CCN(c2c(F)cc3c(=O)c(C(=O)O)cn(C4CC4)c3c2Cl)C1` (stereo not shown) [Clinafloxacin], the “Overall weighted mean CLR” value is given as 191.0 mL/min.

For `CNCCCN1c2ccccc2CCc2ccccc21` [Desipramine], the “Overall weighted mean CLR” value is given as 28.6 mL/min.

In the case of `C[C@@H](CN1CC(=O)NC(=O)C1)N1CC(=O)NC(=O)C1` [Dexrazoxane], the “Overall weighted mean CLR” value is given as 133.3 mL/min.

In the case of `C[C@H]1O[C@@H](O[C@H]2[C@@H](O)C[C@H](O[C@H]3[C@@H](O)C[C@H](O[C@H]4CC[C@@]5(C)[C@H](CC[C@@H]6[C@@H]5C[C@@H](O)[C@]5(C)[C@@H](C7=CC(=O)OC7)CC[C@]65O)C4)O[C@@H]3C)O[C@@H]2C)C[C@H](O)[C@@H]1O` [Digoxin], the “Overall weighted mean CLR” value is listed as 151.1 mL/min.

For `COc1ccc([C@@H]2Sc3ccccc3N(CCN(C)C)C(=O)[C@@H]2OC(C)=O)cc1` [Diltiazem], the “Overall weighted mean CLR” value is listed as 48.0 mL/min.

In the case of `CCn1cc(C(=O)O)c(=O)c2cc(F)c(N3CCNCC3)nc21` [Enoxacin], the “Overall weighted mean CLR” value is given as 256.7 mL/min.

In the case of `CSc1ccc(C(=O)c2[nH]c(=O)[nH]c2C)cc1` [Enoximone], the “Overall weighted mean CLR” value is given as 3.4 mL/min.

In the case of `CCCn1c(=O)[nH]c(=O)c2[nH]cnc21` [Enprofylline], the “Overall weighted mean CLR” value is given as 272.6 mL/min.

For `CN1CCN(c2c(F)cc3c(=O)c(C(=O)O)cn(CCF)c3c2F)CC1` [Fleroxacin], the “Overall weighted mean CLR” value is listed as 67.5 mL/min.

For `Cc1onc(-c2c(F)cccc2Cl)c1C(=O)N[C@@H]1C(=O)N2[C@@H]1SC(C)(C)[C@@H]2C(=O)O` [Flucloxacillin], the “Overall weighted mean CLR” value is given as 90.9 mL/min.

In the case of `CN[C@@H]1CCc2[nH]c3ccc(C(N)=O)cc3c2C1` [Frovatriptan], the “Overall weighted mean CLR” value is listed as 73.5 mL/min.

In the case of `COc1ccc2c3c1O[C@H]1C[C@@H](O)C=C[C@@]31CCN(C)C2` [Galantamine], the “Overall weighted mean CLR” value is given as 57.7 mL/min.

For `C[C@H]1NCc2cc(-c3ccc4c(=O)c(C(=O)O)cn(C5CC5)c4c3OC(F)F)ccc21` [Garenoxacin], the “Overall weighted mean CLR” value is given as 41.8 mL/min.

For `COc1c(N2CCNC(C)C2)c(F)cc2c(=O)c(C(=O)O)cn(C3CC3)c12` (stereo not shown) [Gatifloxacin], the “Overall weighted mean CLR” value is listed as 168.4 mL/min.

For `COc1cc2ncnc(Nc3ccc(F)c(Cl)c3)c2cc1OCCCN1CCOCC1` [Gefitinib], the “Overall weighted mean CLR” value is given as 8.6 mL/min.

For `CO/N=C1\CN(c2nc3c(cc2F)c(=O)c(C(=O)O)cn3C2CC2)CC1CN` (stereo not shown) [Gemifloxacin], the “Overall weighted mean CLR” value is given as 176.8 mL/min.

For `Nc1nnc(-c2cccc(Cl)c2Cl)c(N)n1` [Lamotrigine], the “Overall weighted mean CLR” value is listed as 2.5 mL/min.

For `Nc1cccc2c1CN(C1CCC(=O)NC1=O)C2=O` (stereo not shown) [Lenalidomide], the “Overall weighted mean CLR” value is given as 190.4 mL/min.

For `C[C@H]1COc2c(N3CCN(C)CC3)c(F)cc3c(=O)c(C(=O)O)cn1c23` [Levofloxacin], the “Overall weighted mean CLR” value is listed as 116.9 mL/min.

In the case of `CCn1cc(C(=O)O)c(=O)c2cc(F)c(N3CCNC(C)C3)c(F)c21` (stereo not shown) [Lomefloxacin], the “Overall weighted mean CLR” value is given as 155.8 mL/min.

For `O=C1Nc2ccc(Cl)cc2C(c2ccccc2Cl)=NC1O` (stereo not shown) [Lorazepam], the “Overall weighted mean CLR” value is given as 0.3 mL/min.

For `CNC(C)Cc1ccc2c(c1)OCO2` (stereo not shown) [MDMA], the “Overall weighted mean CLR” value is listed as 215.0 mL/min.

For `CC12CC3CC(C)(C1)CC(N)(C3)C2` [Memantine], the “Overall weighted mean CLR” value is given as 117.1 mL/min.

For `O=S(=O)(O)CCS` [Mesna], the “Overall weighted mean CLR” value is given as 265.8 mL/min.

In the case of `CO[C@@]1(NC(=O)C(C(=O)O)c2ccc(O)cc2)C(=O)N2C(C(=O)O)=C(CSc3nnnn3C)CO[C@@H]21` (stereo partly shown) [Moxalactam], the “Overall weighted mean CLR” value is given as 69.5 mL/min.

In the case of `CCOc1ccc2ccccc2c1C(=O)N[C@@H]1C(=O)N2[C@@H]1SC(C)(C)[C@@H]2C(=O)O` [Nafcillin], the “Overall weighted mean CLR” value is listed as 138.4 mL/min.

For `CC1COc2c(N3CCN(C)CC3)c(F)cc3c(=O)c(C(=O)O)cn1c23` (stereo not shown) [Ofloxacin], the “Overall weighted mean CLR” value is listed as 184.4 mL/min.

For `CCCc1nc(C(C)(C)O)c(C(=O)O)n1Cc1ccc(-c2ccccc2-c2nnn[nH]2)cc1` [Olmesartan], the “Overall weighted mean CLR” value is listed as 11.4 mL/min.

For `CCC(CC)O[C@@H]1C=C(C(=O)O)C[C@H](N)[C@H]1NC(C)=O` [Oseltamivir carboxylate], the “Overall weighted mean CLR” value is listed as 231.7 mL/min.

In the case of `Nc1nc2c(ncn2CCC(CO)CO)c(=O)[nH]1` [Penciclovir], the “Overall weighted mean CLR” value is given as 439.6 mL/min.

In the case of `Cc1cccc(C)c1NC(=O)CC12CCCN1CCC2` [Pilsicainide], the “Overall weighted mean CLR” value is given as 234.7 mL/min.

For `CC(C)NCC(O)COc1cccc2[nH]ccc12` (stereo not shown) [Pindolol], the “Overall weighted mean CLR” value is listed as 210.9 mL/min.

For `CC[C@H](C)C(=O)O[C@H]1C[C@H](O)C=C2C=C[C@H](C)[C@H](CC[C@@H](O)C[C@@H](O)CC(=O)O)[C@H]21` [Pravastatin], the “Overall weighted mean CLR” value is given as 414.6 mL/min.

For `CC(CN1c2ccccc2Sc2ccccc21)N(C)C` (stereo not shown) [Promethazine], the “Overall weighted mean CLR” value is given as 5.9 mL/min.

For `NC(=O)c1cnccn1` [Pyrazinamide], the “Overall weighted mean CLR” value is listed as 2.0 mL/min.

For `Cc1nnc(C(=O)NC(C)(C)c2nc(C(=O)NCc3ccc(F)cc3)c(O)c(=O)n2C)o1` [Raltegravir], the “Overall weighted mean CLR” value is given as 55.0 mL/min.

For `CCN1CCC[C@H]1CNC(=O)c1c(OC)ccc(Br)c1OC` [Remoxipride], the “Overall weighted mean CLR” value is listed as 35.6 mL/min.

For `Oc1ccc(/C=C/c2cc(O)cc(O)c2)cc1` [Resveratrol], the “Overall weighted mean CLR” value is given as 16.6 mL/min.

For `CO[C@H]1/C=C/O[C@@]2(C)Oc3c(C)c(O)c4c(c3C2=O)C2=NC3(CCN(CC(C)C)CC3)NC2=C(NC(=O)/C(C)=C\C=C\[C@H](C)[C@H](O)[C@@H](C)[C@@H](O)[C@@H](C)[C@H](OC(C)=O)[C@@H]1C)C4=O` [Rifabutin], the “Overall weighted mean CLR” value is given as 58.4 mL/min.

For `CO[C@H]1/C=C/O[C@@]2(C)Oc3c(C)c(O)c4c(O)c(c(/C=N/N5CCN(C)CC5)c(O)c4c3C2=O)NC(=O)/C(C)=C\C=C\[C@H](C)[C@H](O)[C@@H](C)[C@@H](O)[C@@H](C)[C@H](OC(C)=O)[C@@H]1C` [Rifampin], the “Overall weighted mean CLR” value is given as 18.7 mL/min.

In the case of `O=C(NC[C@H]1CN(c2ccc(N3CCOCC3=O)cc2)C(=O)O1)c1ccc(Cl)s1` [Rivaroxaban], the “Overall weighted mean CLR” value is listed as 49.8 mL/min.

For `CC(C)c1nc(N(C)S(C)(=O)=O)nc(-c2ccc(F)cc2)c1/C=C/[C@@H](O)C[C@@H](O)CC(=O)O` [Rosuvastatin], the “Overall weighted mean CLR” value is given as 212.5 mL/min.

For `CN1CCN(c2c(F)cc3c(=O)c(C(=O)O)cn4c3c2SCC4)CC1` [Rufloxacin], the “Overall weighted mean CLR” value is given as 16.8 mL/min.

For `CC(C)(C)NCC(O)c1ccc(O)c(CO)c1` (stereo not shown) [Salbutamol], the “Overall weighted mean CLR” value is listed as 289.9 mL/min.
